Measurements as given in patent US9765037B2, “Compositions and methods for treating toxoplasmosis, cryptosporidiosis, and other apicomplexan protozoan related diseases” (University of Washington Through its Center for …, priority 2010, dated 2017).
Like-named read-outs stand apart in the source and are kept apart here.

Columns and labels:
[1] = target: CpCDPK1 (Cryptosporidium parvum (strain Iowa II), UniProt A3FQ16); test: biochemical; assay type: biochemical
[2] = target: PfCDPK4 (Plasmodium falciparum (isolate 3D7), UniProt Q8IBS5); test: biochemical; settings: for inhibition at 3 µM: read-out: PfCDPK4 (% inhibition @ 3 uM)
[3] = target: TgCDPK1 (Toxoplasma gondii, UniProt Q9BJF5); assay type: biochemical
Sequence of TgCDPK1 (Q9BJF5 1-507): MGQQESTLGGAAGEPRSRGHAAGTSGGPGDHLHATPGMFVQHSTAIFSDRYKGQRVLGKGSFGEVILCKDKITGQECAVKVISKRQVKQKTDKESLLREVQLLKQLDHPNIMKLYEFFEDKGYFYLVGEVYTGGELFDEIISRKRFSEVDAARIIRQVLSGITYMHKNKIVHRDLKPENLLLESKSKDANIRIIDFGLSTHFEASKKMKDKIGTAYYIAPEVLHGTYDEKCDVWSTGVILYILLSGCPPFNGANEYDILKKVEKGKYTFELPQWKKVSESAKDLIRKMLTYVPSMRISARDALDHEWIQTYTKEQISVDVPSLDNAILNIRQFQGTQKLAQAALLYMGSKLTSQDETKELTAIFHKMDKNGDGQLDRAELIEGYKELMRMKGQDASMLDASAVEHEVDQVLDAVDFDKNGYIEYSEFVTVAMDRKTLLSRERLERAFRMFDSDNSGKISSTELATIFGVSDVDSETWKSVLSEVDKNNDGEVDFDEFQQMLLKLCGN

[4] = target: PfCDPK1 (Plasmodium falciparum (isolate 3D7), UniProt P62344); test: biochemical; settings: for inhibition at 3 µM: read-out: PfCDPK1 (% inhibition @ 3 uM)
[5] = Table 8, read-out: IC50 (μM) CpCDPK1

Sequence of CpCDPK1 (A3FQ16 1-538): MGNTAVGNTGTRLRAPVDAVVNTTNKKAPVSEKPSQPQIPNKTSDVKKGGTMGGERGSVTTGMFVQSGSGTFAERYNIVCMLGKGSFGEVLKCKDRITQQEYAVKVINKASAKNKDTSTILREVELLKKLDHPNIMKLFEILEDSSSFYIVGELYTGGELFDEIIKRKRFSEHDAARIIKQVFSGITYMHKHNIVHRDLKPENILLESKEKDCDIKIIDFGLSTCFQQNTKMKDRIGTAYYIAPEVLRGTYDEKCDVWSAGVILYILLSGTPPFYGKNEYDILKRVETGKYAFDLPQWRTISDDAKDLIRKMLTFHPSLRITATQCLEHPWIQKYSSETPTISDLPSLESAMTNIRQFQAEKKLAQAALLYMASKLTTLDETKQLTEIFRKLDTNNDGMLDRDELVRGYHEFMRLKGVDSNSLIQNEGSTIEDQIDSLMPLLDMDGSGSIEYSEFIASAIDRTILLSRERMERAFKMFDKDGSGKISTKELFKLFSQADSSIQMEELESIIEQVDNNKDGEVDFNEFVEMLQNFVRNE

CC(C)(C)n1nc(-c2ccc(NC(=O)C3CCCCC3)cc2)c2c(N)ncnc21 [Compound 64, N-(4-(4-amino-1-tert-butyl-1H-pyrazolo[3,4-d]pyrimidin-3-yl)phenyl)cyclohexanecarboxamide]
IC50 [1, 5]: 0.928 µM
EC50 [2]: 1080 nM
IC50 ([3]; read-out: IC50 (μM) TgCDPK1): 0.143 µM
EC50 [4]: 128 nM

Nc1ncnc2c1c(Cc1cccc3ccccc13)nn2Cc1ccccc1 [Compound 5e, 1-benzyl-3-(naphthalen-1-ylmethyl)-1H-pyrazolo[3,4-d]pyrimidin-4-amine]
IC50 ([1]; Table 3, average of three assays ± (SEM), read-out: CpCDPK1 IC50): > 3 µM
IC50 [1, 5]: > 3 µM
IC50 ([3]; read-out: IC50 (μM) TgCDPK1): 1.85 µM

CC(=O)N1CCC(Cn2nc(Cc3cccc4ccccc34)c3c(N)ncnc32)CC1 [Compound 5k, 1-(4-((4-amino-3-(naphthalen-1-ylmethyl)-1H-pyrazolo[3,4-d]pyrimidin-1-yl)methyl)piperidin-1-yl)ethanone]
IC50 ([1]; read-out: IC50 (μM) CpCDPK1): 0.36 µM
IC50 ([3]; read-out: IC50 (μM) TgCDPK1): 0.208 µM

CC(=O)N1CCC(CCn2nc(Cc3cccc4ccccc34)c3c(N)ncnc32)CC1 [Compound 5l, 1-(4-(2-(4-amino-3-(naphthalen-1-ylmethyl)-1H-pyrazolo[3,4-d]pyrimidin-1-yl)ethyl)piperidin-1-yl)ethanone]
IC50 ([1]; read-out: IC50 (μM) CpCDPK1): 0.179 µM
IC50 ([3]; read-out: IC50 (μM) TgCDPK1): 0.104 µM

CSc1cccc(-c2nn(C(C)C)c3ncnc(N)c23)c1 [Compound 7ab, 1-isopropyl-3-(3-(methylthio)phenyl)-1H-pyrazolo[3,4-d]pyrimidin-4-amine]
IC50 ([1]; read-out: IC50 (μM) CpCDPK1): 0.121 µM
inhibition at 3 µM [2]: 79%
IC50 ([3]; read-out: IC50 (μM) TgCDPK1): 0.056 µM
inhibition at 3 µM [4]: 85%

CCCC(=O)Nc1ccc(-c2nn(C(C)(C)C)c3ncnc(N)c23)cc1 [Compound 61, N-(4-(4-amino-1-tert-butyl-1H-pyrazolo[3,4-d]pyrimidin-3-yl)phenyl)butyramide]
IC50 [1, 5]: 0.927 µM
EC50 [2]: 515 nM
IC50 ([3]; read-out: IC50 (μM) TgCDPK1): 0.0684 µM
EC50 [4]: 71.4 nM

COc1cc2ccccc2cc1-c1nn(C(C)C)c2ncnc(N)c12 [Compound 7s, 1-isopropyl-3-(3-methoxynaphthalen-2-yl)-1H-pyrazolo[3,4-d]pyrimidin-4-amine]
IC50 [1, 5]: 0.591 µM
IC50 ([1]; read-out: CpCDPK1 IC50): 0.6 µM
IC50 ([3]; read-out: IC50 (μM) TgCDPK1): 0.863 µM
IC50 ([3]; read-out: TgCDPK1 IC50): 0.9 µM

Nc1ncnc2c1c(Cc1cccc3ccccc13)nn2C1CCOCC1 [Compound 15, 3-(naphthalen-1-ylmethyl)-1-(tetrahydro-2H-pyran-4-yl)-1H-pyrazolo[3,4-d]pyrimidin-4-amine]
IC50 [1, 5]: 0.265 µM
IC50 ([3]; read-out: IC50 (μM) TgCDPK1): 0.149 µM

COc1cc(-c2nn(C(C)C)c3ncnc(N)c23)cc(OC)c1OC [Compound 7l, 1-isopropyl-3-(3,4,5-trimethoxyphenyl)-1H-pyrazolo[3,4-d]pyrimidin-4-amine]
selectivity TgCDPK1 versus CpCDPK1 (in words) [1]: equipotent or slightly selective for CpCDPK1
IC50 ([1]; read-out: CpCDPK1 IC50): 0.093 µM
inhibition at 3 µM [2]: 31%
IC50 ([3]; read-out: TgCDPK1 IC50): 0.42 µM
inhibition at 3 µM [4]: 85%

CC(C)n1nc(-c2cccc3c2sc2ccccc23)c2c(N)ncnc21 [Compound 7x, 3-(dibenzo[b,d]thiophen-4-yl)-1-isopropyl-1H-pyrazolo[3,4-d]pyrimidin-4-amine]
IC50 ([1]; Table 4, average of three assays ± (SEM), read-out: CpCDPK1 IC50): > 3 µM
IC50 [1, 5]: > 3 µM
IC50 ([3]; read-out: IC50 (μM) TgCDPK1): > 3 µM
IC50 ([3]; read-out: TgCDPK1 IC50): > 3 µM

COc1ccc2[nH]c(-c3nn(C(C)C)c4ncnc(N)c34)cc2c1 [Compound 27, 1-isopropyl-3-(5-methoxy-1H-indol-2-yl)-1H-pyrazolo[3,4-d]pyrimidin-4-amine]
IC50 [1, 5]: 0.623 µM
EC50 [2]: > 3000 nM
IC50 ([3]; read-out: IC50 (μM) TgCDPK1): 0.0569 µM
EC50 [4]: 879 nM

Cc1ccc(-c2nn(C(C)C)c3ncnc(N)c23)cc1C [Compound 7h, 3-(3,4-dimethylphenyl)-1-isopropyl-1H-pyrazolo[3,4-d]pyrimidin-4-amine]
IC50 ([1]; read-out: CpCDPK1 IC50): 0.022 µM
IC50 ([3]; read-out: IC50 (μM) TgCDPK1): 0.009 µM

CC(C)n1nc(-c2ccc3c(c2)OCO3)c2c(N)ncnc21 [Compound 7u, 3-(benzo[d][1,3]dioxol-5-yl)-1-isopropyl-1H-pyrazolo[3,4-d]pyrimidin-4-amine]
IC50 ([1]; read-out: IC50 (μM) CpCDPK1): 0.312 µM
EC50 [2]: 1100 nM
IC50 ([3]; read-out: IC50 (μM) TgCDPK1): 0.045 µM
EC50 [4]: 422 nM

C#CCn1nc(Cc2cccc3ccccc23)c2c(N)ncnc21 [Compound 5b, 3-(naphthalen-1-ylmethyl)-1-(prop-2-ynyl)-1H-pyrazolo[3,4-d]pyrimidin-4-amine]
IC50 ([1]; read-out: CpCDPK1 IC50): 0.13 µM
IC50 ([3]; read-out: IC50 (μM) TgCDPK1): 0.086 µM

COc1ccc(-c2nn(C(C)C)c3ncnc(N)c23)cc1OC [Compound 7k, 3-(3,4-dimethoxyphenyl)-1-isopropyl-1H-pyrazolo[3,4-d]pyrimidin-4-amine]
IC50 [1, 5]: 0.173 µM
IC50 ([1]; read-out: CpCDPK1 IC50): 0.17 µM
EC50 [2]: > 3000 nM
IC50 ([3]; read-out: TgCDPK1 IC50): 0.037 µM
EC50 [4]: 1360 nM

Nc1ncnc2c1c(Cc1cccc3ccccc13)nn2Cc1c[nH]cn1 [Compound 31, 1-((1H-imidazol-4-yl)methyl)-3-(naphthalen-1-ylmethyl)-1H-pyrazolo[3,4-d]pyrimidin-4-amine]
IC50 [1, 5]: 0.0936 µM
IC50 ([3]; read-out: IC50 (μM) TgCDPK1): 0.117 µM

CC(C)n1nc(-c2ccc3c(c2)CCCO3)c2c(N)ncnc21 [Compound 7w, 3-(chroman-6-yl)-1-isopropyl-1H-pyrazolo[3,4-d]pyrimidin-4-amine]
IC50 ([1]; read-out: CpCDPK1 IC50): 0.11 µM
IC50 ([3]; read-out: IC50 (μM) TgCDPK1): 0.017 µM
